Columns and labels:
[1] = biological target: T1, Prostaglandin D2 receptor 2 (Homo sapiens, UniProt Q9Y5Y4); assay: Displacement of [3H]PGD2 from human DP2 receptor expressed in CHO cell membranes after 60 mins by scintillation proximity assay
T1 sequence (Q9Y5Y4 whole entry): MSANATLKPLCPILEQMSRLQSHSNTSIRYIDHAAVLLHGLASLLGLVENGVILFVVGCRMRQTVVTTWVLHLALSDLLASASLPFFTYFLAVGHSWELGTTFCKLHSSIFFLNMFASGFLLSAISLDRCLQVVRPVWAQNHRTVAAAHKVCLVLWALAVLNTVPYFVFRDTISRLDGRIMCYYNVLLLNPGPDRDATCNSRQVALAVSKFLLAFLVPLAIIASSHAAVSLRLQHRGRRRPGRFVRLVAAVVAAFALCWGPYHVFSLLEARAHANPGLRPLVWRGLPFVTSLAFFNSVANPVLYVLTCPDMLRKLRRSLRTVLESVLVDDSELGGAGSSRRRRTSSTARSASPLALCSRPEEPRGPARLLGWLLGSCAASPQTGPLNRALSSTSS

[2] = biological target: T1, Prostaglandin D2 receptor 2; assay: Antagonist activity at DP2 receptor in human isolated eosinophils assessed as inhibition of DK-PGD2-induced shape change preincubated for 5 mins followed by DK-PGD2 addition measured after 5 mins by flow cytometry
[3] = Half life in Wistar rat at 0.5 mg/kg, iv by LC-MS/MS analysis; format: ADME, organism-based; details: in vivo
[4] = Oral bioavailability in Wistar rat at 3 mg/kg by LC-MS/MS analysis; format: ADME, organism-based; details: in vivo
[5] = Clearance in Wistar rat at 0.5 mg/kg, iv or 3 mg/kg, po by LC-MS/MS analysis; format: ADME, organism-based; details: in vivo
[6] = Volume of distribution at steady state in Wistar rat at 0.5 mg/kg, iv or 3 mg/kg, po by LC-MS/MS analysis; format: ADME, organism-based; details: in vivo, read-out: Vdss
[7] = biological target: T1, Prostaglandin D2 receptor 2; assay: Antagonist activity at DP2 receptor in CD4-positive human TH2 cells assessed as inhibition of DK-PGD2-induced IL-5 production after 6 to 8 hrs
[8] = biological target: T1, Prostaglandin D2 receptor 2; assay: Displacement of [3H]NVP-QAW039 from human DP2 receptor expressed in CHO cell membranes by TopCount scintillation assay
[9] = biological target: T1, Prostaglandin D2 receptor 2; assay: Antagonist activity at DP2 receptor in CD4-positive human TH2 cells assessed as inhibition of DK-PGD2-induced IL-13 production after 6 to 8 hrs
[10] = Antagonist activity at DP2 receptor in human whole assessed as inhibition of DK-PGD2-induced eosinophils shape change preincubated for 5 mins followed by DK-PGD2 addition measured after 5 mins by flow cytometry
[11] = biological target: T2, Prostaglandin D2 receptor 2 (Homo sapiens) (UniProt Q9Y5Y4)
T2 sequence (whole entry): T1 sequence (Q9Y5Y4 whole entry)
Description: Displacement of [3H]NVP-QAW039 from human DP2 receptor expressed in CHO cell membranes assessed as dissociation half life by TopCount scintillation assay

[12] = tested on: Rattus norvegicus; assay: In vivo antagonist activity at DP2 receptor in Sprague-Dawley rat DK-PGD2-induced pulmonary eosinophilia mechanistic model assessed inhibition of eosinophilia in broncho alveolar lavage fluid at 0.1 to 0.3 mg/kg, po pretreated for 40 mins starting at 2 hrs post IL-5 administration followed by DK-PGD2 administration measured after 2 hrs; format: functional, organism-based
[13] = biological target: T3, Prostaglandin D2 receptor (Homo sapiens, UniProt Q13258); assay: Antagonist activity at DP1 receptor (unknown origin)
T3 sequence (Q13258 whole entry): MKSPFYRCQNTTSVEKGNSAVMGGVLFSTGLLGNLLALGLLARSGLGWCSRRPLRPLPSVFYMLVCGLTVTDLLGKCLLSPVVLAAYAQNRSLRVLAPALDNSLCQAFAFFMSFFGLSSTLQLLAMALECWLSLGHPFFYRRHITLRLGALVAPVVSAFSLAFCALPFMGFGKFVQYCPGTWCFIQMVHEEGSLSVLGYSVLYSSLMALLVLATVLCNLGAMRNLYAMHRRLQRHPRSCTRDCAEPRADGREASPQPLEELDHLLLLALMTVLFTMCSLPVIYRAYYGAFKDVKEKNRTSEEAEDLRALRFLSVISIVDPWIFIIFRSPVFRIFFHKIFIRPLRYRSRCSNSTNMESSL

[14] = species: Canis familiaris; assay: Toxicity in dog; design: species or system Canis lupus familiaris; details: in vivo
[15] = biological target: Cytochrome P450 3A4 (Homo sapiens, UniProt P08684); assay: Inhibition of human CYP3A4; format: ADME
Chain of Cytochrome P450 3A4 (P08684 whole entry): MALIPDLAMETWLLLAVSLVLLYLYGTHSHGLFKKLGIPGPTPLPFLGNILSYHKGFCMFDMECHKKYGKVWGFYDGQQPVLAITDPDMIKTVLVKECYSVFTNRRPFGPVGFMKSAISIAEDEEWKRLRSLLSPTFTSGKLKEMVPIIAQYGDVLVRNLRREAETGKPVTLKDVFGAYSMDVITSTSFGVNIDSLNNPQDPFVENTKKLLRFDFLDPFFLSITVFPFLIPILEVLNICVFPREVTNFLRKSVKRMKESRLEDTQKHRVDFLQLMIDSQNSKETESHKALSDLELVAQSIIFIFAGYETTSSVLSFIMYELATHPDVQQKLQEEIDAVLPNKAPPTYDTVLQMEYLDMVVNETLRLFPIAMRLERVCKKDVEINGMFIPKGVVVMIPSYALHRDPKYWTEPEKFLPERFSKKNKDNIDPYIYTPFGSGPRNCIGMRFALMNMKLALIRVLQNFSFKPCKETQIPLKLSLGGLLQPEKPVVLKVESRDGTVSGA

[16] = biological target: Cytochrome P450 2D6 (Homo sapiens, UniProt P10635); assay: Inhibition of human CYP2D6; format: ADME
Chain of Cytochrome P450 2D6 (P10635 whole entry): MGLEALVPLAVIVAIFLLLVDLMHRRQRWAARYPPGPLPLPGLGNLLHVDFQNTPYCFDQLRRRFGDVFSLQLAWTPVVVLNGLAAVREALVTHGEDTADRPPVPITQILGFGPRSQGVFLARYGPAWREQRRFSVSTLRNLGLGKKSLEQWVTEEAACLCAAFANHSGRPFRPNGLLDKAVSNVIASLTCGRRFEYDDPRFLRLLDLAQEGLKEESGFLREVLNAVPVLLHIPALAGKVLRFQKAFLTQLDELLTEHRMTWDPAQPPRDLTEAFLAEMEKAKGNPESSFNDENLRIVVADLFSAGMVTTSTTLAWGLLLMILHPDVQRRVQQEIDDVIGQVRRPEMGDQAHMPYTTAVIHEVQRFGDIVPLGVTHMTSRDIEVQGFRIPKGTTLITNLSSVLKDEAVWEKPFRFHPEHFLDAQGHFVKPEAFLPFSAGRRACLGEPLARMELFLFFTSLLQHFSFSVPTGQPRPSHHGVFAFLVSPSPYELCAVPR

[17] = biological target: T4, Prostaglandin E2 receptor EP3 subtype (Homo sapiens, UniProt P43115); assay: Antagonist activity at EP3 receptor (unknown origin)
T4 sequence (P43115 whole entry): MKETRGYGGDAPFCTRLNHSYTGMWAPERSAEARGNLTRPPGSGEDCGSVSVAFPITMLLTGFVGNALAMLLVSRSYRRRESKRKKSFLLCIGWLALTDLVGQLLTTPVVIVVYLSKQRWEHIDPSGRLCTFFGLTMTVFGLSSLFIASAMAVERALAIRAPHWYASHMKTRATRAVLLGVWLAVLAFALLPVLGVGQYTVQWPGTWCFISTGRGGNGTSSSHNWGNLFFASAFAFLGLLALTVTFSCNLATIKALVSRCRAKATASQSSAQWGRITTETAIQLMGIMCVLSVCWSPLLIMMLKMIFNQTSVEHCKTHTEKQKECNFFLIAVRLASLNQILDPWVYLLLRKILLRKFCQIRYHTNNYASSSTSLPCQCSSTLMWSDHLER

[18] = biological target: T5, Nuclear receptor subfamily 1 group I member 2 (Homo sapiens, UniProt O75469); assay: Activation of PXR (unknown origin) assessed as CYP3A4 induction; format: ADME
T5 sequence (O75469 whole entry): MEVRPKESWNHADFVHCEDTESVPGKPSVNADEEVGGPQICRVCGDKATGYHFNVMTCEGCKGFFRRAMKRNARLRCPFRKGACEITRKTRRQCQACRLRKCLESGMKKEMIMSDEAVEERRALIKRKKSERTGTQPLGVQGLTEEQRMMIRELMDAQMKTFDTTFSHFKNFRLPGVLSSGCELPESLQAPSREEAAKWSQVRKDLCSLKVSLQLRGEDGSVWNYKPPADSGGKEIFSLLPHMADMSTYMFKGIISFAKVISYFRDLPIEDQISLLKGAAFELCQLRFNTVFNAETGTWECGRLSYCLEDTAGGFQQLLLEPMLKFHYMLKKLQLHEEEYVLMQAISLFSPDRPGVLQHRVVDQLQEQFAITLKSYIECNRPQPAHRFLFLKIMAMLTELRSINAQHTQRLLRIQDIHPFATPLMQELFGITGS

[19] = tested on: Rattus norvegicus; assay: In vivo antagonist activity at DP2 receptor in Sprague-Dawley rat DK-PGD2-induced pulmonary eosinophilia mechanistic model assessed inhibition of eosinophilia in broncho alveolar lavage fluid at 0.03 to 0.1 mg/kg, po pretreated for 40 mins starting at 2 hrs post IL-5 administration followed by DK-PGD2 administration measured after 2 hrs; format: functional, organism-based
[20] = biological target: T1, Prostaglandin D2 receptor 2; assay: Antagonist activity at DP2 receptor in CD4-positive human TH2 cells assessed as inhibition of PGD2-induced IL-4 production preincubated for 30 mins followed by PGD2 addition measured after 6 hrs
[21] = biological target: T6, Cytochrome P450 1A2 (Homo sapiens, UniProt P05177); assay: Inhibition of human CYP1A2; format: ADME
T6 sequence (P05177 whole entry): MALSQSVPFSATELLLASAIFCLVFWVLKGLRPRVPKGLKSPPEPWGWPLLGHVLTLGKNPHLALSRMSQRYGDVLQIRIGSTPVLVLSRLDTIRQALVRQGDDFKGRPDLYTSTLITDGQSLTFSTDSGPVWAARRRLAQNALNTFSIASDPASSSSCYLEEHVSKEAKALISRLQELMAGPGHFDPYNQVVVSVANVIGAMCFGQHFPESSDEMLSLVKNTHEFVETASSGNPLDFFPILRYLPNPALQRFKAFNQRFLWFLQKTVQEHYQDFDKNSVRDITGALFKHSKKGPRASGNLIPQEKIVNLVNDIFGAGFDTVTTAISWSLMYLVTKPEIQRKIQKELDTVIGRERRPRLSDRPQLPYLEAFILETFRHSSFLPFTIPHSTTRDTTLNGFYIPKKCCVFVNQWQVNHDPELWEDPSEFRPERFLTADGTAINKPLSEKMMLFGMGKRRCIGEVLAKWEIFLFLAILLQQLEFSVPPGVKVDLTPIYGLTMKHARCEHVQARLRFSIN

[22] = Fraction unbound in plasma of Sprague-Dawley rat DK-PGD2-induced pulmonary eosinophilia mechanistic model at 0.03 to 0.1 mg/kg, po by equilibrium dialysis method; format: ADME, organism-based
[23] = biological target: Prostaglandin E2 receptor EP4 subtype (Homo sapiens, UniProt P35408); assay: Antagonist activity at EP4 receptor (unknown origin)
Chain of Prostaglandin E2 receptor EP4 subtype (P35408 whole entry): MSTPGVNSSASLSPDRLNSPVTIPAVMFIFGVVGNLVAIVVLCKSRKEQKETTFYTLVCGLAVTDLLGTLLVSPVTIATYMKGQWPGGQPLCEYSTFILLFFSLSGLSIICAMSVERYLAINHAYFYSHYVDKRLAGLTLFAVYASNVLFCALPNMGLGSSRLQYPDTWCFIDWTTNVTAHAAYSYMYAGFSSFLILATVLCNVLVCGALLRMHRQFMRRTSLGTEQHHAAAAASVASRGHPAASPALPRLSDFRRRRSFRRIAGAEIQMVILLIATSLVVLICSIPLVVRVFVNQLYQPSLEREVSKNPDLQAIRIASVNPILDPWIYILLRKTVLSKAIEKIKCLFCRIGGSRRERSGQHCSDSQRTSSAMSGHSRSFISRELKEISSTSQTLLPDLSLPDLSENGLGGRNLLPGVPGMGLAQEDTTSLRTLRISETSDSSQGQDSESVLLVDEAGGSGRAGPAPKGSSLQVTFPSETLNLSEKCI

[24] = biological target: Cytochrome P450 2C9 (Homo sapiens, UniProt P11712); assay: Inhibition of human CYP2C9; format: ADME
Chain of Cytochrome P450 2C9 (P11712 whole entry): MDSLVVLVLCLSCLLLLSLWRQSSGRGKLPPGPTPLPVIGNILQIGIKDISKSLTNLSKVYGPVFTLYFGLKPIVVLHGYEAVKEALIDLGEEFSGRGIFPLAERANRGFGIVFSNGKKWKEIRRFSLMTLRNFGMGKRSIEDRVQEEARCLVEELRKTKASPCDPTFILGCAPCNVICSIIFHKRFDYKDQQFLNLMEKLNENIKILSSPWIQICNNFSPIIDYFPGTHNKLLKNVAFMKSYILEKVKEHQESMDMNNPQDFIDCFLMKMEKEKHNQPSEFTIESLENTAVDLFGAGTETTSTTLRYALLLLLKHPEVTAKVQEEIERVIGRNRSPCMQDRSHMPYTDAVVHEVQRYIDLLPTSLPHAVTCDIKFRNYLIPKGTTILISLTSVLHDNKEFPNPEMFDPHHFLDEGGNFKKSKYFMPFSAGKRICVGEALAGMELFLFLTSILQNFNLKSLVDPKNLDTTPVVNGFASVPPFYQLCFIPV

[25] = biological target: T4, Prostaglandin E2 receptor EP3 subtype; assay: Agonist activity at EP3 receptor (unknown origin)
[26] = biological target: T7, Thromboxane A2 receptor (Homo sapiens, UniProt P21731); assay: Antagonist activity at TP receptor (unknown origin)
T7 sequence (P21731 whole entry): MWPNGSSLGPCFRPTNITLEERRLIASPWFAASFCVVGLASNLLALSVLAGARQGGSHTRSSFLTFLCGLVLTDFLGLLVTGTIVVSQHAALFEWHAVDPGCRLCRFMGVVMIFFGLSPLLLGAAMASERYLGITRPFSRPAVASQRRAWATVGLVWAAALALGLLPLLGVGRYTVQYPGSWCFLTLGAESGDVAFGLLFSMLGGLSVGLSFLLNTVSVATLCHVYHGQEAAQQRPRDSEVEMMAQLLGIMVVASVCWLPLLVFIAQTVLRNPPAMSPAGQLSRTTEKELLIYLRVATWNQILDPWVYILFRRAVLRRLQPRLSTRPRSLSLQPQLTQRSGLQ

[27] = species: Rattus norvegicus; assay: Toxicity in rat; details: in vivo
[28] = biological target: T8, Prostacyclin receptor (Homo sapiens, UniProt P43119); assay: Antagonist activity at IP receptor (unknown origin)
T8 sequence (P43119 whole entry): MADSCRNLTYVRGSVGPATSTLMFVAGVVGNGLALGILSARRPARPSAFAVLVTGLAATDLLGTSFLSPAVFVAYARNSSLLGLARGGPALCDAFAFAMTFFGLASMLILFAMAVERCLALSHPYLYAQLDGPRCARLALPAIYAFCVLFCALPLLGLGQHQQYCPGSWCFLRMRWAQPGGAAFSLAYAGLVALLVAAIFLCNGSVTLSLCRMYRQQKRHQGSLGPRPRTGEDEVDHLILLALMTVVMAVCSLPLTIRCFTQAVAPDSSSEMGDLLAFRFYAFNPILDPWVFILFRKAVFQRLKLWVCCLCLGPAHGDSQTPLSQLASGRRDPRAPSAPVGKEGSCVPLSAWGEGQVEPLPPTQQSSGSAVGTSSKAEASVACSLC

[29] = biological target: T8, Prostacyclin receptor; assay: Agonist activity at IP receptor (unknown origin)
[30] = biological target: Prostaglandin E2 receptor EP2 subtype (Homo sapiens, UniProt P43116); assay: Antagonist activity at EP2 receptor (unknown origin)
Chain of Prostaglandin E2 receptor EP2 subtype (P43116 whole entry): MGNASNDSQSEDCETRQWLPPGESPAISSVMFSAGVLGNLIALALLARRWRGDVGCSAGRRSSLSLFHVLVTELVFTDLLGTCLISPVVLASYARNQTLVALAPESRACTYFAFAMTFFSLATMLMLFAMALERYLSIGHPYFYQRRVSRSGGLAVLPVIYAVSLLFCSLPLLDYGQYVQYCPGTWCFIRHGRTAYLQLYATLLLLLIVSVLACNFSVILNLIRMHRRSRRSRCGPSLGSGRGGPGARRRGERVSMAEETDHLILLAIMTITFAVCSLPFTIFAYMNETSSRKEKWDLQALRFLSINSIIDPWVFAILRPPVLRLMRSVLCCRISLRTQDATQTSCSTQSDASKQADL

[31] = biological target: Prostaglandin F2-alpha receptor (Homo sapiens, UniProt P43088); assay: Antagonist activity at FP receptor (unknown origin)
Chain of Prostaglandin F2-alpha receptor (P43088 whole entry): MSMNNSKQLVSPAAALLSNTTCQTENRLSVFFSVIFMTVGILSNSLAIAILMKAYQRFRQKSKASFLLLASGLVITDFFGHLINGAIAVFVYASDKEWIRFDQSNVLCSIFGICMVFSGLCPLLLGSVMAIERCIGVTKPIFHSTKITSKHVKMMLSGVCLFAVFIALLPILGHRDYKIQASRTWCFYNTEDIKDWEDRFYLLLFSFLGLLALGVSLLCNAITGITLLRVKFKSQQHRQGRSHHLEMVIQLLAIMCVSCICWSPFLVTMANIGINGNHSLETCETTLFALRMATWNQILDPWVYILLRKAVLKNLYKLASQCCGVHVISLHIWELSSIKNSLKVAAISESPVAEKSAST

CCc1ccc2c(CC(=O)O)c(C)n(Cc3ccc(S(C)(=O)=O)cc3)c2n1
Ki [1]: 47 nM
IC50 [2]: 6 nM

Cc1c(CC(=O)O)c2cccnc2n1Cc1ccc(S(C)(=O)=O)c(C(F)(F)F)c1
Ki [1]: 31 nM
IC50 [2]: 4 nM

Cc1c(CC(=O)O)c2cccnc2n1Cc1ccc(S(=O)(=O)C(C)C)cc1
Ki [1]: 86 nM

Cc1c(CC(=O)O)c2cccnc2n1Cc1ccc(S(C)(=O)=O)cc1Cl
Ki [1]: 4 nM
IC50 [2]: 1.7 nM

CCS(=O)(=O)c1ccc(Cn2c(C)c(CC(=O)O)c3cccnc32)c(C(F)(F)F)c1
half-life [3]: 552 min
bioavailability [4]: 97%
clearance [5]: 2.9 mL/min/kg
Vd [6]: 1.2 L/kg
Ki [1]: 7 nM
IC50 [2]: 0.8 nM

Cc1c(CC(=O)O)c2cccnc2n1Cc1ccc(S(C)(=O)=O)cc1 [QAV680]
IC50 [7]: 59 nM
Kd [8]: 15.1 nM
IC50 [9]: 25 nM
IC50 [10]: 31 nM
T1/2 [11]: 1.29 min
IC50 [12]: 40 nM
IC50 [2]: 5 nM

Cc1ccc2c(CC(=O)O)c(C)n(Cc3ccc(S(C)(=O)=O)cc3)c2n1
Ki [1]: 72 nM

Cc1cnc2c(c1)c(CC(=O)O)c(C)n2Cc1ccc(S(C)(=O)=O)cc1
Ki [1]: 1340 nM

CCS(=O)(=O)c1ccc(Cn2c(C)c(CC(=O)O)c3cccnc32)cc1
Ki [1]: 50 nM
IC50 [2]: 4 nM

Cc1c(CC(=O)O)c2cccnc2n1Cc1ccc(S(C)(=O)=O)cc1C(F)(F)F [FEVIPIPRANT]
half-life [3]: 792 min
IC50 [13]: > 10000 nM
IC50 [7]: 2.6 nM
Activity [14]: Non-Toxic
IC50 [15]: > 100000 nM
IC50 [16]: > 100000 nM
Kd [8]: 1.02 nM
IC50 [17]: > 10000 nM
bioavailability [4]: 43%
clearance [5]: 1.6 mL/min/kg
Activity [18]: Not Active
IC50 [19]: 6.5 nM
IC50 [9]: 1.4 nM
IC50 [20]: 3.1 nM
Vd [6]: 1.1 L/kg
IC50 [21]: > 100000 nM
fraction unbound [22]: 0.08
T1/2 [11]: 12 min
IC50 [23]: > 10000 nM
IC50 [24]: > 100000 nM
EC50 [25]: > 10000 nM
IC50 [26]: > 10000 nM
Activity [27]: Non-Toxic
IC50 [28]: > 10000 nM
EC50 [29]: > 10000 nM
IC50 [30]: > 10000 nM
IC50 [2]: 0.4 nM
IC50 [31]: > 10000 nM

Cc1c(CC(=O)O)c2cc(Br)cnc2n1Cc1ccc(S(C)(=O)=O)cc1
Ki [1]: 735 nM

CCS(=O)(=O)c1ccc(Cn2c(C)c(CC(=O)O)c3cccnc32)c(Cl)c1
half-life [3]: 462 min
Kd [8]: 1.91 nM
bioavailability [4]: 71%
clearance [5]: 4.4 mL/min/kg
Vd [6]: 1.1 L/kg
T1/2 [11]: 3.36 min
Ki [1]: 6 nM
IC50 [2]: 1.3 nM

Cc1cc(S(C)(=O)=O)ccc1Cn1c(C)c(CC(=O)O)c2cccnc21
IC50 [2]: 4 nM

Cc1c(CC(=O)O)c2cccnc2n1Cc1ccc(C(F)(F)F)cc1C(F)(F)F
IC50 [2]: 14 nM

Cc1c(CC(=O)O)c2c(Cl)ccnc2n1Cc1ccc(S(C)(=O)=O)cc1
Ki [1]: 356 nM
IC50 [2]: 80 nM

Cc1c(CC(=O)O)c2ccccc2n1Cc1ccc(S(C)(=O)=O)cc1
Kd [8]: 25.1 nM
T1/2 [11]: 0.18 min
Ki [1]: 19 nM
IC50 [2]: 20 nM

Reference: ChEMBL document CHEMBL3997855, “Discovery of Fevipiprant (NVP-QAW039), a Potent and Selective DP2 Receptor Antagonist for Treatment of Asthma” (ACS Med Chem Lett, 2017)
